Reference: ChEMBL document CHEMBL6177959, “Design, synthesis and evaluation of novel carboline-triazole hybrids as promising antimalarial agents” (Eur J Med Chem, 2025)
Calls of active or inactive are those of the source. No cut-off for these calls is given here.

Key:
[1] = tested on: Plasmodium falciparum; experiment: Induction of morphological changes in asexual blood stage Plasmodium falciparum assessed as appearance of fragmentation at 1 uM incubated for 24 hrs by Geimsa-staining based light microscopic analysis; format: functional, organism-based
[2] = tested on: Plasmodium falciparum; experiment: Antimalarial activity against […] infected in human erythrocytes assessed as reduction in parasite growth incubated for 72 hrs by SYBR green dye fluorimetric assay; format: functional, organism-based; settings: K1, Erythrocyte
[3] = tested on: Plasmodium falciparum; experiment: Antimalarial activity against chloroquine-sensitive Plasmodium falciparum 3D7 infected in human erythrocytes assessed as reduction in parasite growth incubated for 72 hrs by SYBR green dye fluorimetric assay; format: functional, organism-based; settings: 3D7, Erythrocyte
[4] = Resistance index, ratio of IC50 for antimalarial activity against […] infected in human erythrocytes to IC50 for antimalarial activity against chloroquine-sensitive Plasmodium falciparum 3D7 infected in erythrocytes; format: functional
[5] = tested on: Plasmodium falciparum; experiment: Antimalarial activity against […] infected in human erythrocytes assessed as inhibition of parasitic growth at 5 uM incubated for 72 hrs by SYBR green dye fluorimetric assay relative to control; format: functional, K1, Erythrocyte; design: scale not given: the % may be the effect or the level left
[6] = Selectivity index, ratio of CC50 for cytotoxicity against human HepG2 cells to IC50 for antimalarial activity against chloroquine-sensitive Plasmodium falciparum 3D7 infected in human erythrocytes assessed as reduction in parasite growth incubated for 72 hrs by SYBR green dye fluorimetric assay; format: toxicity, cell-based; settings: read-out: Ratio CC50/IC50
[7] = tested on: Plasmodium falciparum; experiment: Induction of morphological changes in asexual blood stage Plasmodium falciparum assessed as appearance of healthy rings at 1 uM incubated for 48 to 72 hrs by Geimsa-staining based light microscopic analysis; format: functional, organism-based; settings: time 48-72 hrs
[8] = Cytotoxicity against human HepG2 cells; format: toxicity, cell-based
[9] = tested on: Plasmodium falciparum; experiment: Induction of morphological changes in asexual blood stage Plasmodium falciparum assessed as appearance of schizonts at 1 uM incubated for 48 to 72 hrs by Geimsa-staining based light microscopic analysis; format: functional, organism-based; settings: time 48-72 hrs
[10] = tested on: Plasmodium falciparum; experiment: Induction of morphological changes in asexual blood stage Plasmodium falciparum assessed as lack of prominent periphery in trophozoites at 1 uM incubated for 24 hrs by Geimsa-staining based light microscopic analysis; format: functional, organism-based
[11] = tested on: Plasmodium falciparum; experiment: Induction of morphological changes in asexual blood stage Plasmodium falciparum assessed as appearance of condensed cytoplasm at 1 uM incubated for 24 hrs by Geimsa-staining based light microscopic analysis; format: functional, organism-based
[12] = tested on: Plasmodium falciparum; experiment: Induction of morphological changes in asexual blood stage Plasmodium falciparum assessed as appearance of compact structure at 1 uM incubated for 24 hrs by Geimsa-staining based light microscopic analysis; format: functional, organism-based
[13] = tested on: Plasmodium falciparum; experiment: Antimalarial activity against […] infected in human erythrocytes assessed as inhibition of parasitic growth at 0.16 to 0.63 uM incubated for 72 hrs by SYBR green dye fluorimetric assay relative to control; format: functional, K1, Erythrocyte; design: scale not given: the % may be the effect or the level left; settings: dose 0.16-0.63 µM
[14] = tested on: Plasmodium falciparum; experiment: Antimalarial activity against chloroquine-sensitive Plasmodium falciparum 3D7 infected in erythrocytes assessed as inhibition of parasite growth at 0.16 to 0.31 uM incubated for 72 hrs by SYBR green dye fluorimetric assay; format: functional, organism-based; settings: Erythrocyte, dose 0.16-0.31 µM
[15] = tested on: Plasmodium berghei; experiment: Antimalarial activity against GFP-luciferase expressing liver stage Plasmodium berghei sporozoites infected in human HepG2 cells assessed as inhibition of parasitic growth by luminescence based analysis; format: functional, organism-based
[16] = tested on: Plasmodium yoelii; experiment: Antimalarial activity against Plasmodium yoelii N67 infected in female Swiss mouse model assessed as suppression in parasitic growth at 10 mg/kg, po measured on day 7 relative to control; format: functional; settings: time 7 day
[17] = tested on: Plasmodium yoelii; experiment: Antimalarial activity against Plasmodium yoelii N67 infected in female Swiss mouse model assessed as mean survival time at 10 mg/kg administered orally; format: functional; settings: route po
[18] = tested on: Plasmodium yoelii; experiment: Antimalarial activity against Plasmodium yoelii N67 infected in female Swiss mouse model assessed as suppression in parasitic growth at 20 mg/kg, po measured on day 7 relative to control; format: functional
[19] = tested on: Plasmodium yoelii; experiment: Antimalarial activity against Plasmodium yoelii N67 infected in female Swiss mouse model assessed as suppression in parasitic growth at 20 mg/kg, po measured on day 4 relative to control; format: functional
[20] = tested on: Plasmodium yoelii; experiment: Antimalarial activity against Plasmodium yoelii N67 infected in female Swiss mouse model assessed as parasite survival at 20 mg/kg, po measured after 7 days relative to control; format: functional; settings: N67, 168 h, time 7 day
[21] = tested on: Plasmodium yoelii; experiment: Antimalarial activity against Plasmodium yoelii N67 infected in female Swiss mouse model assessed as suppression in parasitic growth at 10 mg/kg, po measured on day 4 relative to control; format: functional; settings: time 4 day
[22] = tested on: Plasmodium yoelii; experiment: Antimalarial activity against Plasmodium yoelii N67 infected in female Swiss mouse model assessed as mean survival time at 20 mg/kg administered orally; format: functional; settings: route po

## O=C(NCc1cn(-c2ccc(C(F)(F)F)cc2)nn1)c1cc2c([nH]c3ccccc32)c(-c2ccc(Cl)cc2Cl)n1
[1]
  Activity: Active; Irreversible Structural Deformations Observed
[2]
  IC50: 760 nM
[3]
  IC50: 980 nM
[4]
  Ratio IC50: 0.78
[5]
  Activity: 95.63%
[6]
  selectivity ratio at 72 h: 245
[7]
  Activity: inactive
[8]
  CC50: 240000 nM
[9]
  Activity: inactive
[10]
  Activity: Active; Irreversible Structural Deformations Observed
[11]
  Activity: Active; Irreversible Structural Deformations Observed
[12]
  Activity: Active; Irreversible Structural Deformations Observed
[13]
  Activity: 14%
[14]
  Activity: Active

## CCc1ccc(-n2cc(CNC(=O)c3cc4c([nH]c5ccccc54)c(-c4ccc(C)cc4)n3)nn2)cc1
[1]
  Activity: Active; Irreversible Structural Deformations Observed
[2]
  IC50: 490 nM
[3]
  IC50: 750 nM
[4]
  Ratio IC50: 0.65
[15]
  IC50: 7580 nM
[5]
  Activity: 100%
[6]
  selectivity ratio at 72 h: 266
[7]
  Activity: inactive
[8]
  CC50: 200000 nM
[9]
  Activity: inactive
[10]
  Activity: Active; Irreversible Structural Deformations Observed
[11]
  Activity: Active; Irreversible Structural Deformations Observed
[12]
  Activity: Active; Irreversible Structural Deformations Observed

## Cc1ccc(-n2cc(CNC(=O)c3cc4c([nH]c5ccccc54)c(-c4ccc(Cl)cc4Cl)n3)nn2)cc1
[3]
  IC50: 2500 nM
[6]
  selectivity ratio at 72 h: 88.8
[8]
  CC50: 222000 nM

## COc1ccc(-n2cc(CNC(=O)c3cc4c([nH]c5ccccc54)c(-c4ccccc4)n3)nn2)cc1
[3]
  IC50: 3050 nM
[6]
  selectivity ratio at 72 h: 64
[8]
  CC50: 195000 nM

## COc1cc(NC(C)CCCN)c2ncccc2c1 (configuration not stated) [PRIMAQUINE]
[15]
  IC50: 2500 nM

## O=C(NCc1cn(-c2ccc(F)cc2)nn1)c1cc2c([nH]c3ccccc32)c(-c2ccc(Cl)cc2Cl)n1
[3]
  IC50: 1840 nM
[6]
  selectivity ratio at 72 h: 90.5
[8]
  CC50: 167000 nM

## Cc1ccc(-c2cn(-c3ccc(F)cc3)nn2)cc1
[3]
  IC50: 3670 nM
[8]
  CC50: 159000 nM

## O=C(NCc1cn(-c2cc(C(F)(F)F)cc(C(F)(F)F)c2)nn1)c1cc2c([nH]c3ccccc32)c(-c2ccc(Cl)cc2Cl)n1
[3]
  IC50: 2500 nM
[6]
  selectivity ratio at 72 h: 120
[8]
  CC50: 155000 nM

## CCN(CC)CCCC(C)Nc1ccnc2cc(Cl)ccc12 (configuration not stated) [CHLOROQUINE]
[16]
  Activity: 88%
[17]
  MST: 16 days
[18]
  Activity: 91%
[19]
  Activity: 99%
[20]
  survival at 20 mg/kg: 60%
[21]
  Activity: 97.8%
[22]
  MST: >28 days

## C#CCNC(=O)c1cc2c([nH]c3ccccc32)c(-c2ccc(F)cc2)n1
[3]
  IC50: 3460 nM
[8]
  CC50: 167000 nM

## O=C(NCc1cn(-c2ccc(F)cc2)nn1)c1cc2c([nH]c3ccccc32)c(-c2ccc(C(F)(F)F)cc2)n1
[2]
  IC50: 610 nM
[3]
  IC50: 210 nM
[4]
  Ratio IC50: 2.9
[6]
  selectivity ratio at 72 h: 341
[8]
  CC50: 71700 nM

## O=C(NCc1cn(-c2ccc(OC(F)(F)F)cc2)nn1)c1cc2c([nH]c3ccccc32)c(-c2ccc(Cl)cc2Cl)n1
[3]
  IC50: 1550 nM
[6]
  selectivity ratio at 72 h: 121
[8]
  CC50: 187000 nM

## O=C(NCc1cn(-c2ccc(F)cc2)nn1)c1cc2c([nH]c3ccccc32)c(-c2cccc(Cl)c2)n1
[2]
  IC50: 660 nM
[3]
  IC50: 410 nM
[4]
  Ratio IC50: 1.61
[6]
  selectivity ratio at 72 h: 553
[8]
  CC50: 227000 nM

## O=C(NCc1cn(-c2ccccc2)nn1)c1cc2c([nH]c3ccccc32)c(-c2ccc(Cl)cc2Cl)n1
[3]
  IC50: 2040 nM
[6]
  selectivity ratio at 72 h: 105
[8]
  CC50: 214000 nM

## COc1ccc(-c2nc(C(=O)NCc3cn(-c4ccc(F)cc4)nn3)cc3c2[nH]c2ccccc23)cc1
[3]
  IC50: 1910 nM
[6]
  selectivity ratio at 72 h: 85.5
[8]
  CC50: 163000 nM

## O=C(NCc1cn(-c2cccc(C(F)(F)F)c2)nn1)c1cc2c([nH]c3ccccc32)c(-c2ccc(Cl)cc2Cl)n1
[3]
  IC50: 1300 nM
[6]
  selectivity ratio at 72 h: 150
[8]
  CC50: 195000 nM

## O=C(NCc1cn(-c2ccccc2)nn1)c1cc2c([nH]c3ccccc32)c(-c2cccc(Cl)c2)n1
[2]
  IC50: 820 nM
[3]
  IC50: 800 nM
[4]
  Ratio IC50: 1.025
[6]
  selectivity ratio at 72 h: 271
[8]
  CC50: 217000 nM

## O=C(NCc1cn(-c2ccc(F)cc2)nn1)c1cc2c([nH]c3ccccc32)c(-c2ccccc2)n1
[3]
  IC50: 1400 nM
[6]
  selectivity ratio at 72 h: 148
[8]
  CC50: 207000 nM

## Cc1ccc(-c2nc(C(=O)NCc3cn(-c4ccccc4)nn3)cc3c2[nH]c2ccccc23)cc1
[1]
  Activity: Active; Irreversible Structural Deformations Observed
[2]
  IC50: 320 nM
[3]
  IC50: 880 nM
[4]
  Ratio IC50: 0.36
[15]
  IC50: 4810 nM
[5]
  Activity: 82.3%
[6]
  selectivity ratio at 72 h: 213
[7]
  Activity: inactive
[8]
  CC50: 187000 nM
[9]
  Activity: inactive
[10]
  Activity: Active; Irreversible Structural Deformations Observed
[11]
  Activity: Active; Irreversible Structural Deformations Observed
[12]
  Activity: Active; Irreversible Structural Deformations Observed

## O=C(NCc1cn(-c2ccccc2)nn1)c1cc2c([nH]c3ccccc32)c(-c2ccc(C(F)(F)F)cc2)n1
[2]
  IC50: 750 nM
[3]
  IC50: 370 nM
[4]
  Ratio IC50: 2.03
[6]
  selectivity ratio at 72 h: 430
[8]
  CC50: 159000 nM

## Cc1ccc(-c2nc(C(=O)NCc3cn(-c4ccc(F)cc4)nn3)cc3c2[nH]c2ccccc23)cc1
[3]
  IC50: 1940 nM
[6]
  selectivity ratio at 72 h: 91.4
[8]
  CC50: 177000 nM

## COc1ccc(-c2nc(C(=O)NCc3cn(-c4cccc(C(F)(F)F)c4)nn3)cc3c2[nH]c2ccccc23)cc1
[2]
  IC50: 650 nM
[3]
  IC50: 450 nM
[4]
  Ratio IC50: 1.44
[6]
  selectivity ratio at 72 h: 444
[8]
  CC50: 200000 nM

## COc1ccc(-n2cc(CNC(=O)c3cc4c([nH]c5ccccc54)c(-c4ccc(Cl)cc4Cl)n3)nn2)cc1
[1]
  Activity: Active; Irreversible Structural Deformations Observed
[2]
  IC50: 570 nM
[3]
  IC50: 920 nM
[4]
  Ratio IC50: 0.62
[5]
  Activity: 95.63%
[6]
  selectivity ratio at 72 h: 240
[7]
  Activity: inactive
[8]
  CC50: 221000 nM
[9]
  Activity: inactive
[10]
  Activity: Active; Irreversible Structural Deformations Observed
[11]
  Activity: Active; Irreversible Structural Deformations Observed
[12]
  Activity: Active; Irreversible Structural Deformations Observed

## O=C(NCc1cn(-c2ccccc2)nn1)c1cc2c([nH]c3ccccc32)c(-c2ccccc2)n1
[3]
  IC50: 2920 nM
[6]
  selectivity ratio at 72 h: 75.3
[8]
  CC50: 220000 nM

## COc1cc([C@@H]2c3cc4c(cc3[C@H](O)[C@H]3COC(=O)[C@H]23)OCO4)cc(OC)c1OC [PODOFILOX]
[8]
  CC50: 8700 nM

## COc1ccc(-c2nc(C(=O)NCc3cn(-c4ccccc4)nn3)cc3c2[nH]c2ccccc23)cc1
[3]
  IC50: 1570 nM
[6]
  selectivity ratio at 72 h: 50.6
[8]
  CC50: 79500 nM

## O=C(NCc1cn(-c2cccc(C(F)(F)F)c2)nn1)c1cc2c([nH]c3ccccc32)c(-c2ccccc2)n1
[3]
  IC50: 1470 nM
[6]
  selectivity ratio at 72 h: 136
[8]
  CC50: 200000 nM

## O=C(NCc1cn(-c2ccc(F)cc2F)nn1)c1cc2c([nH]c3ccccc32)c(-c2ccc(Cl)cc2Cl)n1
[3]
  IC50: 1700 nM
[6]
  selectivity ratio at 72 h: 84.5
[8]
  CC50: 144000 nM
